Reference: article PMC8538004, “Identification of a Novel Neuropeptide S Receptor Antagonist Scaffold Based on the SHA-68 Core” (Pharmaceuticals, 2021)

Columns and labels:
human NPSR-107I = target: T1, human NPSR-107I (Homo sapiens, UniProt Q6W5P4, N107I); assay: Ca+2 mobilization assay (apparent Ke against NPS); type: cell-based; conditions: for Kb: Calcium Mobilization, CHO-Gα16-hNPSR-107I cells, shift of NPS EC50; for Loss of antagonist activity compared to SHA: compared with SHA-66 (Ke = 10 nM); for NPSR antagonist activity in words: calcium mobilization, SAR discussion
T1 construct: expressed in transfected cells
T1 sequence (Q6W5P4 1-371 N107I): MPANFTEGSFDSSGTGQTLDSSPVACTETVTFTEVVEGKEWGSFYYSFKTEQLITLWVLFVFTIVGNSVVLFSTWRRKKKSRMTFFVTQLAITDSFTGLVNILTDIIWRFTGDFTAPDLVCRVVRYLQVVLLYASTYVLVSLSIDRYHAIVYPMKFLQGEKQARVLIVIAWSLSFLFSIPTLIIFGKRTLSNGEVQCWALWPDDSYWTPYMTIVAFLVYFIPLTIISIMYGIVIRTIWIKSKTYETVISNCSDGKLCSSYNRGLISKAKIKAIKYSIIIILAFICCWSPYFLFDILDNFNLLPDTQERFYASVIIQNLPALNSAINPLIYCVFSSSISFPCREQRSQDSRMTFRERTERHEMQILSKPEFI
Experimental: A stable cell line overexpressing the human NPSR-107I was created in CHO-Gαq16 cells (RD-HGA16, Molecular Devices), as previously described. Briefly, CHO-Gαq16 cells were transfected with pcDNA 3.1 human NPSR-107I using Lipofectamine reagent. Transfected cells were plated into 10 cm^2 dishes 24 h post-transfection and were selected using Geneticin. After 2 weeks, individual clones were selected, grown to confluence, and screened in a functional 96-well calcium mobilization assay that measured the response to NPS (100 nM final). […] A final working clone was chosen for all subsequent studies based on NPS potency and the calcium mobilization signal window. CHO-Gα16-hNPSR-107I cells were cultured in Ham’s F12 media supplemented with 10% FBS, 100 units/mL penicillin, 100 μg/mL streptomycin, 200 μg/mL hygromycin, and 400 μg/mL geneticin. Media were purchased from HyClone (GE Life Sciences); FBS, penicillin/streptomycin, hygromycin, and geneticin were purchased from Invitrogen (Thermo Scientific). The day before the assay, cells were plated into 96-well black-walled assay plates at 25,000–40,000 cells/well in growth medium without selection antibiotics. Cells were incubated overnight at 37 °C, 5% CO2. The FLIPR Calcium 5 assay kit (Molecular Devices) was used according to the manufacturer’s instructions with minor modifications. Briefly, reconstituted dye was diluted in pre-warmed assay buffer (HBSS, 20 mM HEPES, 2.5 mM probenecid, pH 7.4 at 37 °C). Growth medium was removed, and the cells were gently washed with assay buffer. Calcium 5 dye was added to the cells and the plate was incubated for 45 min at 37 °C, 5% CO2. A single concentration of test compound and 10-point concentration–response curves of NPS (ranging from 100 nM to 1 pM) were prepared at 10× the desired final concentration. Cells were pretreated with the test compound or vehicle in a final concentration of 0.25% BSA/1% DMSO for 15 min at 37 °C. Assay plates were read with a FlexStation II instrument (excitation at 485 nm, detection at 525 nm, Molecular Devices). Calcium-mediated changes in fluorescence were monitored every 1.5 s over a 90 s time period. NPS was added during the read and the maximum kinetic […] (SoftMax [Max-Min], Molecular Devices) in relative fluorescent units (RFU) was measured. Data were fitted to a three-parameter logistic curve to generate EC50 values (GraphPad Prism 6.0). Antagonism was quantified by measuring the ratio of equi-active concentrations of agonist measured in the presence or absence of the antagonist. Apparent Ke values were calculated using the equation Ke = [L]/((EC50^+/EC50^−) − 1), where [L] is the concentration of test compound, EC50^+ is the EC50 of NPS with test compound, and EC50^– is the EC50 of NPS alone. Ke values were considered valid when the EC50^+/EC50^− ratio was at least 4. HBSS and HEPES were purchased from Gibco (Thermo Scientific); probenecid, BSA, and DMSO were purchased from Sigma-Aldrich.

NPSR = system: NPSR; set-up: method as in PMID 24964000, PMID 20615693, PMID 18337476, PMID 24171469, PMID 20510609; conditions: Figure 1, known NPSR antagonists; cited from earlier work

SMILES	Kb (human NPSR-107I)	other results
O=C1OC(Cc2ccccc2)(c2ccccc2)C2=C1CCN(C(=O)NCc1ccccc1)C2 (centres unmarked) [Compound 12, N-3-Dibenzyl-1-oxo-3-phenyl-1H,3H,4H,5H,6H,7H-furo[3,4-c]pyridine-5-carboxamide]	606 nM	
O=C1OC2(C3=C1CCN(C(=O)NCc1ccccc1)C3)c1ccccc1CCc1ccccc12 [Compound 9, N-Benzyl-3-oxo-4,5,6,7-tetrahydro-3H-spiro[furo[3,4-c]pyridine-1,2′-tricyclo[9.4.0.0^{3,8}]pentadecane]-1′(11′),3′,5′,7′,12′,14′-hexaene-6-carboxamide]	1660 nM	
CCC(C)(CCN1CCOCC1)N(Cc1cc2ccccc2n(C)c1=O)C(=O)C1CCCCC1 (centres unmarked) [A]		IC50 (NPSR): 23 nM
Cc1c(P(=S)(c2ccccc2)c2ccccc2)n2ccccc2[n+]1C/C=C/c1ccccc1 [D]		IC50 (NPSR): 9.6 nM
O=C1OC(c2ccccc2)(c2ccccc2)C2=C1CCN(C(=O)NCc1ccccc1)C2 [Compound 1, N-Benzyl-1-oxo-3,3-diphenyl-1H,3H,4H,5H,6H,7H-furo[3,4-c]pyridine-5-carboxamide]	522 nM	Loss of antagonist activity compared to SHA (human NPSR-107I): roughly 50 fold
CC(C)CC1(c2ccccc2)OC(=O)N2CCN(C(=O)NCc3ccccc3)CC21 (centres unmarked) [Compound 29, N-Benzyl-3-(2-methylpropyl)-1-oxo-3-phenyl-hexahydro-1H-[1,3]oxazolo[3,4-a]piperazine-5-carboxamide]		NPSR antagonist activity in words (human NPSR-107I): completely inactive
O=C(c1ccccc1N1Cn2c(ccc2-c2ccccc2)C1=O)N1CCCCC1 [C]		IC50 (NPSR): 10 nM
CCCCNC(=O)N1CC[C@H]2C(=O)OC(c3ccccc3)(c3ccccc3)[C@H]2C1 [Compound 4, (3,7)-N-Butyl-1-oxo-3,3-diphenyl-octahydrofuro[3,4-c]pyridine-5-carboxamide]		NPSR antagonist activity in words (human NPSR-107I): lacked antagonist activity
O=C(NCc1ccccc1)N1CCN2C(=O)OC(c3ccccc3)(c3ccccc3)C2C1 (centres unmarked) [SHA-66]		Ke (NPSR): 10 nM
O=C1OC(c2ccccc2)(c2ccccc2)C2=C1CN(C(=O)NCc1ccccc1)CC2 [Compound 7, N-Benzyl-3-oxo-1,1-diphenyl-1H,3H,4H,5H,6H,7H-furo[3,4-c]pyridine-5-carboxamide]	1130 nM	NPSR antagonist activity in words (human NPSR-107I): significant loss of potency
O=C(NCCN1CCCCC1)N1CCN2C(=O)OC(c3ccccc3)(c3ccccc3)[C@H]2C1 [RTI-118]		Ke (NPSR): 36 nM
O=C1OC(c2ccccc2)(c2ccccc2)[C@H]2CN(C(=O)NCc3ccccc3)CC[C@@H]12 [Compound 3, (3,7)-N-Benzyl-1-oxo-3,3-diphenyl-octahydrofuro[3,4-c]pyridine-5-carboxamide]	761 nM	NPSR antagonist activity in words (human NPSR-107I): lacked antagonist activity
COc1ccc2c(c1)C(CC1CCOCC1)(c1ccc(Cl)cc1)n1ccnc1-2 (centres unmarked) [B]		IC50 (NPSR): 82 nM
O=C1OC(c2ccccc2)(c2ccccc2)[C@@H]2CN(C(=O)NCc3ccccc3)CC[C@@H]12 [Compound 5, (3,7)-N-Benzyl-1-oxo-3,3-diphenyl-octahydrofuro[3,4-c]pyridine-5-carboxamide]	170 nM	

Second part, led by results:

Kb (human NPSR-107I)	SMILES	other results
118 nM	CC(C)CC1(c2ccccc2)OC(=O)C2=C1CN(C(=O)NCc1ccccc1)CC2 (centres unmarked) [Compound 14, N-Benzyl-3-(2-methylpropyl)-1-oxo-3-phenyl-1H,3H,4H,5H,6H,7H-furo[3,4-c]pyridine-5-carboxamide]	
572 nM	CC(C)CC1(c2ccccc2OCc2ccccc2)OC(=O)C2=C1CN(C(=O)NCc1ccccc1)CC2 (centres unmarked) [Compound 24, N-Benzyl-3-[2-(benzyloxy)phenyl]-3-(2-methylpropyl)-1-oxo-1H,3H,4H,5H,6H,7H-furo[3,4-c]pyridine-5-carboxamide]	
146 nM	CC(C)(C)CC1(c2ccccc2)OC(=O)C2=C1CN(C(=O)NCc1ccccc1)CC2 (centres unmarked) [Compound 13, N-Benzyl-3-(2,2-dimethylpropyl)-1-oxo-3-phenyl-1H,3H,4H,5H,6H,7H-furo[3,4-c]pyridine-5-carboxamide]	
500 nM	CC(C)CC1(c2ccc3ccccc3c2)OC(=O)C2=C1CN(C(=O)NCc1ccccc1)CC2 (centres unmarked) [Compound 22, N-Benzyl-3-(2-methylpropyl)-3-(naphthalen-2-yl)-1-oxo-1H,3H,4H,5H,6H,7H-furo[3,4-c]pyridine-5-carboxamide]	
136 nM	CC(C)CC1(c2cccc(Cl)c2)OC(=O)C2=C1CN(C(=O)NCc1ccccc1)CC2 (centres unmarked) [Compound 25, N-Benzyl-3-(3-chlorophenyl)-3-(2-methylpropyl)-1-oxo-1H,3H,4H,5H,6H,7H-furo[3,4-c]pyridine-5-carboxamide]	
432 nM	CC(C)CC1(c2ccccc2)OC(=O)C2=C1CN(C(=O)NCc1ccccc1)CC2 (centres unmarked) [Compound 14a, N-Benzyl-3-(2-methylpropyl)-1-oxo-3-phenyl-1H,3H,4H,5H,6H,7H-furo[3,4-c]pyridine-5-carboxamide]	
238 nM	CCCCNC(=O)N1CCC2=C(C1)C(CC(C)C)(c1ccccc1)OC2=O (centres unmarked) [Compound 26, N-Butyl-3-(2-methylpropyl)-1-oxo-3-phenyl-1H,3H,4H,5H,6H,7H-furo[3,4-c]pyridine-5-carboxamide]	NPSR antagonist activity in words (human NPSR-107I): reduction in potency
260 nM	CCCCNC(=O)N1CC[C@H]2C(=O)OC(c3ccccc3)(c3ccccc3)[C@@H]2C1 [Compound 6, (3,7)-N-Butyl-1-oxo-3,3-diphenyl-octahydrofuro[3,4-c]pyridine-5-carboxamide]	
1500 nM	CC(C)CC1(c2ccccc2O)OC(=O)C2=C1CN(C(=O)NCc1ccccc1)CC2 (centres unmarked) [Compound 23, N-Benzyl-3-(2-hydroxyphenyl)-3-(2-methylpropyl)-1-oxo-1H,3H,4H,5H,6H,7H-furo[3,4-c]pyridine-5-carboxamide]	
566 nM	CC(C)CC1(c2ccccc2)OC(=O)C2=C1CN(C(=O)NCCN1CCCCC1)CC2 (centres unmarked) [Compound 27, 3-(2-Methylpropyl)-1-oxo-3-phenyl-N-[2-(piperidin-1-yl)Ethyl]-1H,3H,4H,5H,6H,7H-furo[3,4-c]pyridine-5-carboxamide]	NPSR antagonist activity in words (human NPSR-107I): reduction in potency
734 nM	CC(C)CC1(CC(C)C)OC(=O)C2=C1CN(C(=O)NCc1ccccc1)CC2 [Compound 16, N-Benzyl-3,3-bis(2-methylpropyl)-1-oxo-1H,3H,4H,5H,6H,7H-furo[3,4-c]pyridine-5-carboxamide]	
386 nM	CC(C)CC1(c2ccccc2)OC(=O)C2=C1CN(C(=S)NCCN1CCCCC1)CC2 (centres unmarked) [Compound 28, 3-(2-Methylpropyl)-1-oxo-3-phenyl-N-[2-(piperidin-1-yl)ethyl]-1H,3H,4H,5H,6H,7H-furo[3,4-c]pyridine-5-carbothioamide]	NPSR antagonist activity in words (human NPSR-107I): reduction in potency
515 nM	CCCCNC(=O)N1CCC2=C(C1)C(c1ccccc1)(c1ccccc1)OC2=O [Compound 2, N-Butyl-1-oxo-3,3-diphenyl-1H,3H,4H,5H,6H,7H-furo[3,4-c]pyridine-5-carboxamide]	Loss of antagonist activity compared to SHA (human NPSR-107I): roughly 50 fold
165 nM	CCCCC1(c2ccccc2)OC(=O)C2=C1CN(C(=O)NCc1ccccc1)CC2 (centres unmarked) [Compound 11, N-Benzyl-3-butyl-1-oxo-3-phenyl-1H,3H,4H,5H,6H,7H-furo[3,4-c]pyridine-5-carboxamide]	
